Source: patent publication US20220265657A1, “ADMINISTRATION METHOD AND DOSAGE REGIMEN FOR TREATMENT OF NEURODEGENERATIVE DISEASES USING TRAMETINIB AND MARKERS” (GENUV INC., priority 2019, published 2022)

Experiments:
[1] = test system: NSCs from adult Tg2576 mice; assay: Immunofluorescence staining of NSCs from adult Tg2576 mice; format: cell-based; conditions: 100 nM, 48 hrs
Description: Cell culture: SH-SY5Y neuroblastoma cells were cultured at 37° C., 5% CO2., in Dulbecco's Modified Eagle Medium/Ham's F-12 nutrient mixture (DMEM/F12) (Invitrogen, Carlsbad, Calif.) supplemented with 10% heat-inactivated fetal bovine serum containing 100 units/ml penicillin, 100 μg/ml streptomycin. Primary cortical neuron cultures were derived from embryo day 18 (E18) from ICR mice. The dissociated cells were plated on glass cover slips coated with poly-D-lysine in Neurobasal medium supplemented with 2% B27 (Invitrogen), 100 units/ml penicillin, 100 μg/ml streptomycin, and 2 mM L-glutamine. Primary NSCs from normal mice were isolated from the subventricular zone (SVZ) of 8 week-old C57BL/6 mice brain. NSCs from adult Tg2576 mice brain were obtained from Seoul National University Hospital. The neurospheres were cultured as previously described (M. Y. Kim, B. S. Moon, K. Y. Choi, Isolation and maintenance of cortical neural progenitor cells in vitro. Methods Mol Biol 1018, 3-10 (2013)). For neurosphere culture from normal mice, the cells were dissociated from brain tissue and grown in N2 medium in 25 cm^2 flasks (SPL, Gyeonggi-do, Korea) in suspension. bFGF (20 ng/ml, Peprotech, Princeton, N.J.) and human EGF (20 ng/ml, Peprotech) were added to the media to allow the cells to form neurospheres. For analyses, NSCs were cultured as a monolayer. For differentiation of NSCs, the neurospheres were dissociated with TrypLE (Invitrogen), plated on 15 μg/ml poly-L-ornithine-(Sigma-Aldrich, St. Louis, Mo.) and 10 μg/ml fibronectin (Gibco)-coated plates, and cultured in bFGF- and EGF-depleted N2 medium for 2 days. For neurosphere culture from Tg2576 mice, the cells were grown in DMEM/F12 supplemented with B27 supplements in 75 cm^2 flasks (SPL) in suspension. bFGF (10 ng/ml) and human EGF (10 ng/ml) were added to the media to allow the cells to form neurospheres. For inducing differentiation and AP expression, the neurospheres were dissociated with pipetting, plated on 15 μg/ml poly-L-ornithine- and 10 μg/ml fibronectin (Gibco)-coated plates, and cultured in bFGF- and EGF-depleted medium for 2 days.
Immunocytochemistry: SH-SY5Y cells or adult NSCs were placed on glass coverslips coated with poly-L-ornithine/laminin or poly-D-lysine, respectively. After washing three times with PBS for 5 min, cells were fixed in 10% formalin for 15 min at room temperature. The cells were then washed with PBS and permeabilized in 0.1% Triton X-100 for 2 min. Cells were placed in blocking solution containing 5% BSA in PBS for 1 h at room temperature and incubated with anti-active caspase 3 (cell signaling), anti-Aβ (thermo), anti-Tau (Cell signaling), anti-LC3 (Cell signaling) and anti-LAMP1 (Abcam) in blocking buffer for 2 h at room temperature. After washing, cells were incubated with goat anti-rabbit antibody conjugated with Alexa Fluor 488 (Thermo) and/or goat anti-rat antibody conjugated with Alexa Fluor 555 (Thermo) overnight. After washing, cells were incubated with 4′,6-diamidino-2-phenylindole (DAPI) for 5 min. Coverslips were mounted using mounting medium (Biomeda, Foster City, Calif.) and visualized by confocal microscopy using a LSM700 microscope (Carl Zeiss). The percentage of coefficient was calculated using the pixels above threshold of fluorescence intensities. […] The fluorescence intensity was observed under a confocal microscopy using a LSM700 microscope (Carl Zeiss). The number of LysoTracker puncta was analyzed with Icy software.

SH-SY5Y cells = assay: Immunocytochemistry of LC3, LAMP1 and lysotracker in SH-SY5Y cells; format: cell-based
Description: Cell culture: SH-SY5Y neuroblastoma cells were cultured at 37° C., 5% CO2., in Dulbecco's Modified Eagle Medium/Ham's F-12 nutrient mixture (DMEM/F12) (Invitrogen, Carlsbad, Calif.) supplemented with 10% heat-inactivated fetal bovine serum containing 100 units/ml penicillin, 100 μg/ml streptomycin. Primary cortical neuron cultures were derived from embryo day 18 (E18) from ICR mice. The dissociated cells were plated on glass cover slips coated with poly-D-lysine in Neurobasal medium supplemented with 2% B27 (Invitrogen), 100 units/ml penicillin, 100 μg/ml streptomycin, and 2 mM L-glutamine. Primary NSCs from normal mice were isolated from the subventricular zone (SVZ) of 8 week-old C57BL/6 mice brain. NSCs from adult Tg2576 mice brain were obtained from Seoul National University Hospital. […]
Immunocytochemistry: SH-SY5Y cells or adult NSCs were placed on glass coverslips coated with poly-L-ornithine/laminin or poly-D-lysine, respectively. […] The percentage of coefficient was calculated using the pixels above threshold of fluorescence intensities. […] The fluorescence intensity was observed under a confocal microscopy using a LSM700 microscope (Carl Zeiss). The number of LysoTracker puncta was analyzed with Icy software.

[2] = test system: whole brains of normal mice; assay: Bulk RNA-Seq of whole brains of normal mice; format: in vivo; conditions: FC ≥1.3, FDR <0.05
Description: (§1) Trametinib treatment: Trametinib (Medchemexpress, Monmouth Junction, N.J.) was micronized and suspended in the vehicle containing 5% mannitol, 1.5% hydroxypropyl methylcellulose and 0.2% sodium lauryl sulfate. For pharmacokinetic analysis, 0.05, 0.2 and 0.8 mg/kg of trametinib were orally administered to 7-week-old normal mice (ICR, n=5 per group) as a single administration. […] For studies on the change in pERK expression in normal mice and whole cell RNA sequencing study, 0.1 mg/kg/day of trametinib (in 4% DMSO+96% corn oil) was orally administered to 6-week old C57BL/6 mice (n=3 per group). Mice were sacrificed after 1, 2, 3, or 4 weeks of administration. 5XFAD mice (male, n=7˜10 per group) were divided into vehicle and trametinib treated groups. 12-month old mice received vehicle or 0.1 mg/kg of trametinib for 1 month by oral gavage once a day (These mice are referred to as “13-month old 5XFAD mice” in the Examples). […] Blood was obtained after completion of treatment.
Whole cell RNA sequencing: RNA was isolated from mice whole brain, and cDNA libraries for RNA sequencing were prepared using the TruSeq Stranded mRNA Prep Kit (Illumina, San Diego, Calif.) according to the manufacturer's guidelines (1). The libraries were sequenced on the Illumina Nextseq500 platform, and the reads were mapped to the reference Mouse mm10 genome using Tophat v2.0.13. […] To define differentially expressed genes (DEG), we set up a stringent statistic cutoff of fold change (FC) of ≥1.3 and a false discovery rate (FDR)<0.05. […] Gene ontology was performed with the Gene Ontology program of the gene ontology consortium. Heatmap analysis was performed by R studio using the DEG list related with synapse, neurogenesis and lysosome.

[3] = test system: neurons and neural stem cells (NSCs); conditions: in vitro, even in the presence of cytotoxic oligomers of Aβ1-42; cited from earlier work
[4] = Pharmacokinetic analysis, brain and plasma concentration after single oral administration; format: in vivo; conditions: normal mice
Description: as §1

Structure (SMILES): CC(=O)Nc1cccc(-n2c(=O)n(C3CC3)c(=O)c3c(Nc4ccc(I)cc4F)n(C)c(=O)c(C)c32)c1 [trametinib]
- active caspase 3 [1]: reduced active caspase 3
- autophagosome-lysosome fusions in axon-like elongated elements and soma [1]: markedly increased
- cells with bipolar morphology with elongated neurites [1]: marked increase
- differentiation of NSCs into neuron-like cells [1]: strongly induced differentiation of NSCs into neuron-like cells
- expression of autophagosomes and lysosomes (LC3 and LAMP1 staining) [1]: markedly increased
- co-staining of LC3-LAMP1 (SH-SY5Y cells; even in the presence of Aβ1-42 oligomers): increased co-staining of LC3-LAMP1
- lysotracker-positive acidic puncta (SH-SY5Y cells; in the presence of Aβ1-42 oligomers): increased lysotracker-positive acidic puncta
- number of differentially expressed genes (DEGs) between vehicle and trametinib group ([2]; first week): 500
- number of differentially expressed genes (DEGs) between vehicle and trametinib group ([2]; fourth week): 538
- number of differentially expressed genes (DEGs) between vehicle and trametinib group ([2]; second week): 498
- number of differentially expressed genes (DEGs) between vehicle and trametinib group ([2]; third week): 446
- neuronal differentiation and survival of neurons and NSCs [3]: effective in inducing neuronal differentiation and promoting survival of neurons and neural stem cells (NSCs)
- Kp ([4]; ICR, mouse, brain and plasma, 0.8 mg/kg, highest dose group, read-out: brain/plasma exposure ratio (AUC)): 0.477
- penetration of the blood-brain barrier (BBB) [4]: confirmed to penetrate the blood-brain barrier (BBB)
